Measurements from PMC10252614 (International Journal of Molecular Sciences, 2023).
Entries after “also recorded” stand apart in the source; their conditions may differ.

Experiments:
human BChE (hBChE) = biological target: T1, human BChE (hBChE) (Homo sapiens, UniProt P06276); assay: hBChE inhibition, modified Ellman's method; format: biochemical; settings: 10^-6 M
T1 construct: made in house
Method: N-Methylpropargylamine-quinazolines were tested for their inhibitory potency against human AChE (hAChE) and human BChE (hBChE) enzymes using the modified spectrophotometric method of Ellman et al..
The human recombinant BChE and AChE were prepared at the Department of Toxicology and Military Pharmacy (Faculty of Military Health Sciences, Hradec Kralove, Czech Republic). 5,5′-dithiobis(2-nitrobenzoic acid) (Ellman’s reagent, DTNB), phosphate buffer (PB, pH 7.4), acetylthiocholine (ATC) and butyrylthiocholine (BTC), were purchased from Sigma-Aldrich, Prague, Czech Republic. For measuring purposes, polystyrene Nunc 96-well microplates with a flat-bottom shape (ThermoFisher Scientific, Waltham, MA, USA) were utilized. All the assays were carried out in 0.1 M KH2PO4/K2HPO4 buffer, pH 7.4. Enzyme solutions were prepared at 2.0 units/mL in 2 mL aliquots. The assay medium consisted of a 0.1 M phosphate buffer (pH 7.4), 0.01 M DTNB, the enzyme, and 0.01 M substrate (ATC/BTC iodide solution). Concentration 1 µM was tested and the % of inhibition was calculated. Tested compounds were pre-incubated for 5 min. The reaction was started by immediate addition of 20 μL of the substrate. […] Each concentration was assayed in triplicate. Software GraphPad Prism 5 (San Diego, CA, USA) was used for the statistical data evaluation.

hMAO-B [1] = biological target: T2, hMAO-B (Homo sapiens, UniProt P27338); assay: in vitro inhibition of hMAO-B, kynuramine fluorescence assay; format: biochemical
T2 construct: purchased Merck (Prague, Czech Republic)
T2 sequence (P27338 1-520): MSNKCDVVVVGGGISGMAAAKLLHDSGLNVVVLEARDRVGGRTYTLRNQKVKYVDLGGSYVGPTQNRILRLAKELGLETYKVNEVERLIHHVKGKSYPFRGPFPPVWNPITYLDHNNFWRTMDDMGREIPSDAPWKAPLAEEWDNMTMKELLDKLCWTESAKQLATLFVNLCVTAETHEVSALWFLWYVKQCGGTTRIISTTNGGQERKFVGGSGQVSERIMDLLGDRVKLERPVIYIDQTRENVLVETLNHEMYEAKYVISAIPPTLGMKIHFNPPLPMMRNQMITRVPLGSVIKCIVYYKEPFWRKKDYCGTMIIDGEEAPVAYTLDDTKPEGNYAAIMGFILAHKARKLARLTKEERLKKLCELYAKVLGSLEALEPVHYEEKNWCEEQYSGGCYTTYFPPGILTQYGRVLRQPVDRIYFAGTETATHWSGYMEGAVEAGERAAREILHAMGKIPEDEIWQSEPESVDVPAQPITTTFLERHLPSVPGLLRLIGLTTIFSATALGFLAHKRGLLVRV
Method: The hMAO-A and hMAO-B enzymes were purchased from Merck (Prague, Czech Republic). […] The mixture was pre-incubated at 37 °C for 15 min and subsequently substrate kynuramine was added to the final concentration of 100 µM. The final volume of reaction mixture was 0.1 mL. The whole reaction mixture was incubated at 37 °C for 30 min. The reaction was stopped by the addition of 20 µL 4M NaOH.

[2] = system: differentiated SH-SY5Y cells; assay: MTT viability of differentiated SH-SY5Y; format: cell-based, human; settings: concentration equal to IC50 from undifferentiated model, 24 h
Method: Then, the differentiated SH-SY5Y cells were treated with concentrations corresponding to the IC50 values obtained from the cytotoxicity measurement using undifferentiated SH-SY5Y cells. Cells were exposed to a tested compound for 24 h. Then, the medium was replaced by a medium containing 10 μM of MTT and cells were allowed to produce formazan for another, approximately 3 h under surveillance. Thereafter, the medium was aspirated and purple crystals of MTT formazan were dissolved in 100 μL DMSO under shaking. Cell viability was assessed spectrophotometrically by the amount of formazan produced. Absorbance was measured at 570 nm with 650 nm reference wavelength on Spark (Tecan Group Ltd., Männedorf, Switzerland). The IC50 value was then calculated from the control-subtracted triplicates using non-linear regression (four parameters) of GraphPad Prism 9 software. Final IC50 and SEM values were obtained as a mean of three.

SH-SY5Y cells [3] = assay: dehydrogenase activity, WST-1 test; format: cell-based, human; settings: for Dehydrogenase Activity (% of Control): 100 µM, mean ± SD; for change in dehydrogenase activity (in words): 10 µM
Method: (§1) Next, we tested the effects of the compounds on intracellular dehydrogenase activity and glutathione levels. […] To evaluate the effects of the compounds on cells, we measured total intracellular dehydrogenase activity as a marker of cellular viability and glutathione levels for evaluation of oxidative stress (Table 6).
Dehydrogenase activity was evaluated by WST-1 test (Roche, Munich, Germany). The WST-1 test measures the activity of intra- and extra-mitochondrial dehydrogenases. […] The change of absorbance was measured by spectrophotometer at the wavelength of 440 nm using SPARK microplate reader (Tecan, Austria) while incubated at 37 °C. The dehydrogenase activity was expressed as the percentage of total cellular dehydrogenase activity relative to that in the control cells (control = 100%).

hMAO-A = biological target: T3, hMAO-A (Homo sapiens, UniProt P21397); assay: hMAO-A inhibition mechanism: dialysis reversibility and kinetics; format: biochemical; settings: non-linear regression according to Michaelis–Menten
T3 construct: purchased Merck (Prague, Czech Republic)
T3 sequence (P21397 1-527): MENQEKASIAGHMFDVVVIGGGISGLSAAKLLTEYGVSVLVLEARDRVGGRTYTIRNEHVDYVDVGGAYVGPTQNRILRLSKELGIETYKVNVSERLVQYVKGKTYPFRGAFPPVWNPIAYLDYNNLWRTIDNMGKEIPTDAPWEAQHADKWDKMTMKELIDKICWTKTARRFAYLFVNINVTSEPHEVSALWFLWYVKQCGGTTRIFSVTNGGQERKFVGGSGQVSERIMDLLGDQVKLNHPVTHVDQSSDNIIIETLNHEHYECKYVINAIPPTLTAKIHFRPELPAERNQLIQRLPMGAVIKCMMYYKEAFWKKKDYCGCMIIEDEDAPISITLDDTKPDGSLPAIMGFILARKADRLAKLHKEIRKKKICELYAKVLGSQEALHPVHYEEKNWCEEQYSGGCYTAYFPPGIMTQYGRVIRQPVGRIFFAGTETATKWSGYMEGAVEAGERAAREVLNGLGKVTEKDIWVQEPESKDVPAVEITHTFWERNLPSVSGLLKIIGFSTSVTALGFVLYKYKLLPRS
Method: (§2) The MAOs were subsequently incubated with selected compounds at different concentrations and evaluated by non-linear regression according to Michaelis–Menten (Figure 5).
(§3) Inhibition mechanism was determined by non-linear regression and the double reciprocal method by Lineweaver–Burk using GraphPad Prism 8.2 software. […] The recovery of enzyme activity was determined using the above-mentioned protocol.

hMAO-B [4] = biological target: T2, hMAO-B; assay: hMAO-B inhibition mechanism: dialysis reversibility and kinetics; format: biochemical; settings: for mode of hMAO-B inhibition: non-linear regression according to Michaelis–Menten
Method: as §2, §3

SH-SY5Y cells [5] = assay: glutathione levels, monochlorobimane assay; format: cell-based, human; settings: 10 µM, 24 h
Method: as §1
The glutathione (GSH) levels were measured using an optimized monochlorobimane assay. The working solutions of monochlorobimane (MCB, Merck, Rahway, NJ, USA) were prepared fresh at the time of analysis by dilution in Dulbecco’s phosphate buffer (PBS; pH 7; 1 µM, Merck, USA) and tempered at 37 °C for 30 min. After the treatment of cells with I-6e (100 µM), I-6h (100 µM), II-6e (100 µM), II-6h (10–100 µM) and III-6a (10–100 µM), 20 μL of the MCB solution was added to the cells in 96-well microplates and the measurement started immediately (final concentration of MCB in a well was 40 μmol/L) The fluorescence intensity (Ex/Em = 394/490 nm) was measured kinetically for 20 min using SPARK microplate reader (Tecan, Austria). The fluorescence was expressed as the slope of a fluorescence change over time. The GSH levels were expressed as the percentage relative to the GSH levels in control cells (control = 100%).

T1 sequence (P06276 29-602): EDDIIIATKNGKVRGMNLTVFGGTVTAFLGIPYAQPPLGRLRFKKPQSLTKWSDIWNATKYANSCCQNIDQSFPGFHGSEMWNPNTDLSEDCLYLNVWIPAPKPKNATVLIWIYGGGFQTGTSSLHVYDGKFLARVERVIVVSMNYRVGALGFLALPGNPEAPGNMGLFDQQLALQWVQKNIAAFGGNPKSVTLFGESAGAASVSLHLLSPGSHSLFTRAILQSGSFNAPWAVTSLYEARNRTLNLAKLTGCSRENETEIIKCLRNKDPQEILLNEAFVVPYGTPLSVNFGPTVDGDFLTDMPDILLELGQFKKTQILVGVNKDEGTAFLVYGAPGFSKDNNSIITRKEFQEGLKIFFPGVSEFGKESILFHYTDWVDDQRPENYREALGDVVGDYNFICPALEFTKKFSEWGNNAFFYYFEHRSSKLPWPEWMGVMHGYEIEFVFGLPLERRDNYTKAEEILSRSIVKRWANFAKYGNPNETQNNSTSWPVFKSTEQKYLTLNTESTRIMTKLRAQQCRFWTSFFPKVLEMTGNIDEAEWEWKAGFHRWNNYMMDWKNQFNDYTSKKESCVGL

SMILES | inhibition at 1 µM (human BChE (hBChE)) [%] | selectivity profile hMAO-A vs hMAO-B (in words) (hMAO-B [1]) | effect on viability of differentiated SH-SY5Y (in words) [2] | Dehydrogenase Activity (% of Control) (SH-SY5Y cells [3]; 6 h) | Dehydrogenase Activity (% of Control) (SH-SY5Y cells [3]; 24 h) | IC50 (hMAO-B [1]) [µM] | SI for MAO-B (hMAO-B [1]; IC50(MAO-A)/IC50(MAO-B)) | mode of hMAO-A inhibition (hMAO-A) | mode of hMAO-B inhibition (hMAO-B [4]) | reversible/irreversible inhibitory action towards hMAO-B (hMAO-B [4]; recovery of enzyme activity after dialysis) | change in dehydrogenase activity (in words) (SH-SY5Y cells [3]; 24 h) | change in glutathione levels (in words) (SH-SY5Y cells [5])
C#CCN(C)c1nc(NCCCC)c2ccccc2n1 [I-6e, N4-butyl-N2-methyl-N2-(prop-2-yn-1-yl)quinazoline-2,4-diamine] | 4 | hMAO-A selective inhibitors | no difference from the undifferentiated model | 44 ± 13 % of Control | 49 ± 4 % of Control |  |  |  |  |  |  | 
C#CCN(C)c1nc(NC2CCCCC2)c2ccccc2n1 [I-6h, N4-cyclohexyl-N2-methyl-N2-(prop-2-yn-1-yl)quinazoline-2,4-diamine] | 0 | inhibitor of both hMAO isoforms, with a preference for hMAO-B inhibition | no difference from the undifferentiated model | 62 ± 10 % of Control | 49 ± 2 % of Control | 8.69 ± 0.12 | 0.10 | mixed mode inhibition | mixed mode inhibition |  |  | 
C#CCN(C)c1nc(NC2CCCCC2)c2ccc(Cl)cc2n1 [II-6h, 7-chloro-N4-cyclohexyl-N2-methyl-N2-(prop-2-yn-1-yl)quinazoline-2,4-diamine] | 3 | hMAO-B selective inhibitors | did not exhibit any cytotoxic effects; also recorded: lost the cytotoxic effect | 40 ± 3 % of Control | 22 ± 7 % of Control | 0.33 ± 0.02 |  |  | mixed mode inhibition | only a partial recovery | no significant changes | no significant changes
C#CCN(C)c1nc(N)c2cc(OC)ccc2n1 [III-6a, 6-methoxy-N2-methyl-N2-(prop-2-yn-1-yl)quinazoline-2,4-diamine] | 1 | hMAO-A selective inhibitors | no difference from the undifferentiated model | 107 ± 8 % of Control | 128 ± 4 % of Control |  |  | mixed mode inhibition |  |  | no significant changes | no significant changes
